These results are taken from patent EP4755880A1, “SUBSTITUTED NITROGEN-CONTAINING BICYCLIC COMPOUND AND USE THEREOF” (Sunshine Lake Pharma Co., Ltd., priority 2023, dated 2025).

The target in one assay is PARP1 (Homo sapiens, UniProt P09874). As to the kind of experiment: Inhibition of PARP1 enzyme activity (ELISA, chemiluminescence). The assay is classed as biochemical. The note with it: for IC50: ELISA, histone-coated plate, NAD+, 60 min at 25 °C; for Selectivity PARP2/PARP1: ratio of PARP2 IC50 to PARP1 IC50. For orientation: An ELISA detects its analyte on a solid surface through an enzyme-linked reagent.
PARP1, sequence (P09874 whole entry): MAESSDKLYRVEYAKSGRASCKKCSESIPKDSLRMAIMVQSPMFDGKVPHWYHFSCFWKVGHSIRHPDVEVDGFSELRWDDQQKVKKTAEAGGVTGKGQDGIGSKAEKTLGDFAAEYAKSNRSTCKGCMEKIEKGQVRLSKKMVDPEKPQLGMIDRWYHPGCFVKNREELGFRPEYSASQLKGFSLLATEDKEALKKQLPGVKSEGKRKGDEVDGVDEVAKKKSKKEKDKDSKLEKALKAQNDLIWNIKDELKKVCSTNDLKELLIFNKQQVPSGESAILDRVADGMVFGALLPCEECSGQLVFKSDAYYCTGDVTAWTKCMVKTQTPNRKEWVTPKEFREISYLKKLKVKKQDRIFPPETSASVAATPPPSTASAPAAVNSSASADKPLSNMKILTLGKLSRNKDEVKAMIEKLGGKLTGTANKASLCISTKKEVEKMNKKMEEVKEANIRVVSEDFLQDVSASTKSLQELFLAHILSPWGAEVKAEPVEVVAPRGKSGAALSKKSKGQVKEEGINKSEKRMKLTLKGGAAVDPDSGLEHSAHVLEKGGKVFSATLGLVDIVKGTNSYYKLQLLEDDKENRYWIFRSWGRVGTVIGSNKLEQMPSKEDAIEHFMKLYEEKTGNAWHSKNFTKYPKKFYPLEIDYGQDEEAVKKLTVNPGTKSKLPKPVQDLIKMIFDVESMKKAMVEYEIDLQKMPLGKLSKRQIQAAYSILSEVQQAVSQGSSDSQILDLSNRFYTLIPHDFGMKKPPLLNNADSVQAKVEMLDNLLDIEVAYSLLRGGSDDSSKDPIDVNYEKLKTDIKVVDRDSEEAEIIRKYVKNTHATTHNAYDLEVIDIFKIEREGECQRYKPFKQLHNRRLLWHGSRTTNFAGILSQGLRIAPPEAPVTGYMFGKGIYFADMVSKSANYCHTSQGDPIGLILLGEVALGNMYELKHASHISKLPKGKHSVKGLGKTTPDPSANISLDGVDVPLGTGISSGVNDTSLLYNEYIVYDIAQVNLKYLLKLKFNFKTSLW

A further assay deals with PARP2 (Homo sapiens, UniProt Q9UGN5). As to the kind of experiment: biochemical.
PARP2, sequence (Q9UGN5 whole entry): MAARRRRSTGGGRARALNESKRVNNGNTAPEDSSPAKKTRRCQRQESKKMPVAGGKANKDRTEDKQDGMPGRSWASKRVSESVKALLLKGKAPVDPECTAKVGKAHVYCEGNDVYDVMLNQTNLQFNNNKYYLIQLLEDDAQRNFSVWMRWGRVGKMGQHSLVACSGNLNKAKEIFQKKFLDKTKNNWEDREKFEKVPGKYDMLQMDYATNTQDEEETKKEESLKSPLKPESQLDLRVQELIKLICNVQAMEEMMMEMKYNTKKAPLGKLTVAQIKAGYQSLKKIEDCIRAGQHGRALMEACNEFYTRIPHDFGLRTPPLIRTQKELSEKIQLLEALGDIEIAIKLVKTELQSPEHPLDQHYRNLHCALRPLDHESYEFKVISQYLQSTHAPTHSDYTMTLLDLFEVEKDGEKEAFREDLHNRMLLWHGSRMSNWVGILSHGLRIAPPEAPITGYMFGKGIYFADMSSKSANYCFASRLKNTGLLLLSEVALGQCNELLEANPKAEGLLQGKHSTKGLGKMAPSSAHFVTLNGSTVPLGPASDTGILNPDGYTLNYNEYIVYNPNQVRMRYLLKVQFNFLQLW

Description for PARP1: (§1) Experimental Objective: To evaluate the inhibitory effect of the compounds of the present invention on the enzyme activities of PARP1 and PARP2 using ELISA.
(§2) • 1. histone-coated 384-well plates was prepared: 25 µL of histone solution was added to each well and incubated overnight at 4 °C. • 2. PBST buffer, blocking buffer (PBS buffer with 5% BSA and 0.05% Tween-20 added) and detection buffer (20 mM HEPES pH 7.5 + 100 mM NaCl + 2 mM DTT + 0.002% Tween-20 + 0.1% BSA) were prepared. • 3. The histone-coated 3 84-well plate was washed three times with PBST buffer, blocked at room temperature with 50 µL blocking buffer for 1 hour, and then washed three times with PBST buffer. • 4. Test compounds were prepared as 2000-fold stock solutions in DMSO. 50 nL of the stock solution was mixed with 19.95 µL detection buffer, and 5 µL of the gradient-diluted test compound was transferred to each well. • 5. Enzymatic reaction (PARP1): PARP1 & DNA mix was pre-incubated at 25 °C for 10 minutes. 10 µL of the PARP1 & DNA mix was added to each well and incubated with the test compound at room temperature for 10 minutes. […] Finally, the 384-well plate was washed three times with PBST buffer. Enzymatic reaction (PARP2): PARP2 was pre-incubated at 25 °C for 10 minutes. 10 µL of PARP2 was added to each well and incubated with the test compound at room temperature for 10 minutes. […] Finally, the 384-well plate was washed three times with PBST buffer. • 6. Detection (PARP1): 20 µL of anti-Poly/Mono-ADP Ribose Rabbit mAb was added and incubated at room temperature for 1.5 hours, followed by three washes of the 384-well plate with PBST buffer. Then, 20 µL of diluted anti-rabbit IgG, HRP-linked Antibody (diluted 1:2000 in blocking buffer) was added and incubated at room temperature for 1 hour. After washing the plate three times with PBST buffer, 25 µL of a 1:1 mixture of Femto-ECL Substrate A and Femto-ECL Substrate B was added. Detection (PARP2): 25 µL of Strep-HRP was added and incubated at room temperature for 1 hour, followed by three washes of the 384-well plate with PBS buffer. Then, 25 µL of a 1:1 mixture of Femto-ECL Substrate A and Femto-ECL Substrate B was added. • 7. Chemiluminescence intensity was measured using an Envision multimode microplate reader. • 8. Data Processing
(§3) The inhibition rate was calculated in Excel using formula (1). inh% = (Max−Signal)/(Max−Min)*100 [formula]
(§4) The IC50 value was obtained by fitting the data in XL-Fit using formula (2). Y = bottom + (top−bottom)/(1+(IC50/X)*HillSlope); [formula] wherein Y is the inhibition percentage and X is the compound concentration.
Description for PARP2: as §1, §2, §3, §4

For the compound `CNC(=O)c1ccc(N2CCN(Cc3cc(OC(F)(F)F)c4nc(C)c(=O)[nH]c4c3)CC2)c(F)n1` [Example 17, 6-fluoro-N-methyl-5-(4-((2-methyl-3-oxo-8-(trifluoromethoxy)-3,4-dihydroquinoxalin-6-yl)methyl)piperazin-1-yl)picolinamide], the IC50 (as a rule, the point on the concentration scale where inhibition reaches its midpoint) came to 3.6 nM at PARP1 and 169 nM against PARP2. The “Selectivity PARP2/PARP1” value at PARP1 was 46.9.

On to `CC#Cc1cc(CN2CC=C(c3ccc(C(=O)NC)nc3F)CC2)c(F)c2[nH]c(=O)c(C)nc12` [Example 23, 2-fluoro-1'-((5-fluoro-2-methyl-3-oxo-8-(prop-1-yn-1-yl)-3,4-dihydroquinoxalin-6-yl)methyl)-N-methyl-1',2',3',6'-tetrahydro-[3,4'-bipyridine]-6-carboxamide], for which, on PARP1, half-maximal inhibition (IC50) required 2.4 nM and the “Selectivity PARP2/PARP1” value was 4113.1. The half-inhibitory concentration (IC50) on PARP2 was above 10000 nM.

As to `CNC(=O)c1ccc(C2=CCN(Cc3cc(C#CC4CC4)c4nc(C)c(=O)[nH]c4c3F)CC2)c(F)n1` [Example 24, 1'-((8-(cyclopropylethynyl)-5-fluoro-2-methyl-3-oxo-3,4-dihydroquinoxalin-6-yl)methyl)-2-fluoro-N-methyl-1',2',3',6'-tetrahydro-[3,4'-bipyridine]-6-carboxamide], the IC50 was 10 nM at PARP1 and above 10000 nM at PARP2. For the same compound, on PARP1, the “Selectivity PARP2/PARP1” value is on record as 1004.6.

`CNC(=O)c1ccc(N2CCN(Cc3cc(Oc4ccccc4F)c4nc(C)c(=O)[nH]c4c3)CC2)c(F)n1` [Example 27, 6-fluoro-5-(4-((8-(2-fluorophenoxy)-2-methyl-3-oxo-3,4-dihydroquinoxalin-6-yl)methyl)piperazin-1-yl)-N-methylpicolinamide]: the figures for the IC50 against PARP1 and against PARP2 were 2.2 nM and 626 nM, respectively. Besides, the “Selectivity PARP2/PARP1” value at PARP1 is on record as 278.9.

As for `CNC(=O)c1ccc(N2CCN(Cc3cc(Oc4cccc(F)c4)c4nc(C)c(=O)[nH]c4c3)CC2)c(F)n1` [Example 28, 6-fluoro-5-(4-((8-(3-fluorophenoxy)-2-methyl-3-oxo-3,4-dihydroquinoxalin-6-yl)methyl)piperazin-1-yl)-N-methylpicolinamide], on PARP1, the IC50 is 1.8 nM and the “Selectivity PARP2/PARP1” value is reported as 356.3. Further, the IC50 against PARP2 was 654 nM.

Take `CNC(=O)c1ccc(N2CCN(Cc3cc(Oc4ccncc4)c4nc(C)c(=O)[nH]c4c3)CC2)c(F)n1` [Example 29, 6-fluoro-N-methyl-5-(4-((2-methyl-3-oxo-8-(pyridin-4-yloxy)-3,4-dihydroquinoxalin-6-yl)methyl)piperazin-1-yl)picolinamide]: at PARP1, the concentration for half-maximal inhibition (IC50) was found to be 11.5 nM and the “Selectivity PARP2/PARP1” value came out at 217.3. In addition, the concentration for half-maximal inhibition (IC50) against PARP2 was determined as 2500 nM.

For `CNC(=O)c1ccc(N2CCN(Cc3cc(C4CCCC4)c4nc(C)c(=O)[nH]c4c3)CC2)c(F)n1` [Example 31, 5-(4-((8-cyclopentyl-2-methyl-3-oxo-3,4-dihydroquinoxalin-6-yl)methyl)piperazin-1-yl)-6-fluoro-N-methylpicolinamide], the concentration for half-maximal inhibition (IC50) against PARP1 is 2.5 nM; against PARP2, 45.4 nM. The “Selectivity PARP2/PARP1” value at PARP1 is listed as 18.4.

As to `CNC(=O)c1ccc(N2CCN(Cc3cc(OC(C)C(F)(F)F)c4nc(C)c(=O)[nH]c4c3)CC2)c(F)n1` (stereo not drawn) [Example 34, 6-fluoro-N-methyl-5-(4-((2-methyl-3-oxo-8-((1,1,1-trifluoropropan-2-yl)oxy)-3,4-dihydroquinoxalin-6-yl)methyl)piperazin-1-yl)picolinamide], on PARP1, the 50% inhibitory concentration (IC50) was 2.8 nM and the “Selectivity PARP2/PARP1” value was 359.1. Half-maximal inhibition on PARP2 (IC50) was put at 1020 nM.

On to `CC#Cc1cc(CN2CCN(c3ccc(C#N)nc3)CC2)cc2[nH]c(=O)c(C)nc12` [Example 36, 5-(4-((2-methyl-3-oxo-8-(prop-1-yn-1-yl)-3,4-dihydroquinoxalin-6-yl)methyl)piperazin-1-yl)picolinonitrile], for which, at PARP1, the 50% inhibitory concentration (IC50) was 3 nM and the “Selectivity PARP2/PARP1” value is 139.8. Besides, it took 413 nM to reach half-maximal inhibition at PARP2 (IC50).
